By Ki is commonly meant a dissociation constant, usually derived from enzyme kinetics or from competition with a known ligand. By IC50 is commonly meant the concentration that inhibits the measured activity by half. A low value points to greater potency in that assay. Usually logD stands for lipophilicity at a set pH, counting ionised and neutral species. Read a high logD as higher lipophilicity. What is called efflux ratio is the permeability from basolateral to apical divided by that in the opposite direction, in the common usage.

These results are taken from ChEMBL document CHEMBL4020831, “Discovery of GDC-0853: A Potent, Selective, and Noncovalent Bruton's Tyrosine Kinase Inhibitor in Early Clinical Development” (J Med Chem, 2018).

Data set [1] deals with T1, Tyrosine-protein kinase BTK (Homo sapiens, UniProt Q06187). The experiment in a line: Inhibition of human recombinant C-terminal polyhistidine tagged BTK (1 to 659 residues)-mediated synthetic peptide substrate phosphorylation expressed in baculovirus-infected insect cells.
T1 sequence (Q06187 whole entry, the tested form may be a part): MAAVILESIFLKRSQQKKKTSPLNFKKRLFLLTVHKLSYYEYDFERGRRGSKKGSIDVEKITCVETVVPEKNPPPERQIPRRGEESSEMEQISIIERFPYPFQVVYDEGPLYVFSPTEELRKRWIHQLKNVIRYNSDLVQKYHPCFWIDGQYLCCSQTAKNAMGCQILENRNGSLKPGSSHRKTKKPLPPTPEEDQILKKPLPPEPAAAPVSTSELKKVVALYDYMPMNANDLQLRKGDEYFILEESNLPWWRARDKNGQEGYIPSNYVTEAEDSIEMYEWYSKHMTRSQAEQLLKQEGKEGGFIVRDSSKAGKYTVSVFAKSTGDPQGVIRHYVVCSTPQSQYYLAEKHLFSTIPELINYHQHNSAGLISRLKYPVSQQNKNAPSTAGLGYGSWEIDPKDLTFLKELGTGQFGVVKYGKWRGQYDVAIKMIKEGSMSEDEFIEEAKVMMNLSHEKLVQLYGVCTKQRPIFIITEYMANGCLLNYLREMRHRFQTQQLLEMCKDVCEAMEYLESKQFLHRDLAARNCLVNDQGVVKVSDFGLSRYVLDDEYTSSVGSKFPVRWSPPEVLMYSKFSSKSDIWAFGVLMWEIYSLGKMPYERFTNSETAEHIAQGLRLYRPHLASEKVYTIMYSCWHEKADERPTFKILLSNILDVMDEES
Data set [2] is described as follows: Clearance in human liver microsomes at 1 uM incubated up to 60 mins by LC-MS/MS method. The data set is classed as ADME, microsome.
The nature of data set [3]: Permeability across apical to basolateral in MDCK1 cells. Conditions: dog, MDCK; read-out: permeability. It counts as ADME, cell-based, Canis lupus familiaris.
Data set [4] deals with T1, Tyrosine-protein kinase BTK.
Description: Inhibition of BTK in human whole blood-derived CD19+ B cells assessed as suppression of anti-IgM stimulated-CD69 expression preincubated for 1 hr followed by IgM stimulation for 18 hrs by FACS analysis
The nature of the next data set: physchem. The conditions noted are these: buffer, pH 7.4.
A further data set is described as follows: in vitro. Conditions: dog, MDCK.

Description for in vitro: Efflux ratio of permeability in MDCK1 cells

With `Cn1cc(-c2ccnc(N3Cc4cc(C(C)(C)C)sc4C3=O)c2CO)cc(Nc2ccc(N3CCN(C4COC4)CC3)cn2)c1=O`, the Ki in data set [1] is 1 nM. Further, in data set [2], the CLhep predicted at 1 µM is 10 mL/min/kg.

As to `Cn1cc(-c2ccnc(N3CCn4c(cc5c4CC(C)(C)C5)C3=O)c2CO)cc(Nc2ccc(C3CN(C4COC4)C3)cn2)c1=O`, the Papp A→B in data set [3] is 48.5 ×10⁻⁶ cm/s. This compound also yielded an IC50 in data set [4] of 23.5 nM. Moreover, the Ki in data set [1] stood at 0.43 nM. The compound also had a logD in “physchem” of 3. Besides, the CLhep predicted at 1 µM in data set [2] was 16 mL/min/kg. For the same compound, the efflux ratio in the data set “in vitro” was determined as 0.4.

The compound `C[C@@H]1CN(c2ccc(Nc3cc(-c4cc(F)cc(N5CCn6c(cc7c6CCCC7)C5=O)c4CO)cn(C)c3=O)nc2)CCN1C` gave an IC50 in data set [4] of 12.7 nM. Also, the Ki in data set [1] was determined as 0.43 nM. For the same compound, the logD in the data set “physchem” amounted to 3.3. Moreover, the CLhep predicted at 1 µM in data set [2] was 13 mL/min/kg.

Turning to `CC(=O)N1CCN(c2ccc(Nc3cc(-c4ccnc(N5CCn6c(cc7c6CC(C)(C)C7)C5=O)c4CO)cn(C)c3=O)nc2)CC1`, the Papp A→B in data set [3] is 11.1 ×10⁻⁶ cm/s. The IC50 in data set [4] worked out at 66.5 nM. Further, the Ki in data set [1] was 1.8 nM. In addition, the logD in the data set “physchem” stood at 2.9. The CLhep predicted at 1 µM in data set [2] is 8.8 mL/min/kg. Besides, the efflux ratio in “in vitro” turned out to be 1.2.

Take `Cn1cc(-c2ccnc(-n3ccn4c5c(cc4c3=O)CCCC5)c2CO)cc(Nc2ccc(N3CCN(C4COC4)CC3)cn2)c1=O`: the Ki in data set [1] was 4.2 nM. Besides, the CLhep predicted at 1 µM in data set [2] was 9.2 mL/min/kg.

Regarding `Cn1cc(-c2ccnc(N3CCc4c(sc5c4CC(C)(C)C5)C3=O)c2CO)cc(Nc2ccc(N3CCN(C4COC4)CC3)cn2)c1=O`, the Ki in data set [1] is 0.58 nM. In addition, the CLhep predicted at 1 µM in data set [2] was 13.5 mL/min/kg.

`Cn1cc(-c2ccnc(N3CCn4c5c(c(F)c4C3=O)CCCC5)c2CO)cc(Nc2ccc(N3CCN(C4COC4)CC3)cn2)c1=O`: the Ki in data set [1] is 2.5 nM. The CLhep predicted at 1 µM in data set [2] is 8.1 mL/min/kg.

For `Cn1cc(-c2ccnc(N3CCn4c(cc5c4CC(C)(C)C5)C3=O)c2CO)cc(Nc2ccc(N3CCN(CCC(F)(F)F)CC3)cn2)c1=O`, the Papp A→B in data set [3] is 14.2 ×10⁻⁶ cm/s. In data set [4], this compound came in with an IC50 of 116 nM. The Ki in data set [1] was found to be 4 nM. For the same compound, the logD in the data set “physchem” came out at 4.4. Besides, in data set [2], the CLhep predicted at 1 µM is 16 mL/min/kg. Also, the efflux ratio in the data set “in vitro” is 0.6.

For the compound `CC(=O)N1CC2(C1)CN(c1ccc(Nc3cc(-c4ccnc(N5CCn6c(cc7c6CC(C)(C)C7)C5=O)c4CO)cn(C)c3=O)nc1)C2`, the IC50 in data set [4] is 33.4 nM. The Ki in data set [1] was 3.3 nM. Also, the logD in “physchem” is 2.5. Also, in data set [2], the CLhep predicted at 1 µM was 10 mL/min/kg.

As to `Cn1cc(-c2ccnc(N3CCn4c(cc5c4CC(C)(C)C5)C3=O)c2CO)cc(Nc2ccc(N3CCN(C4CCOCC4)CC3)cn2)c1=O`, in data set [4], half-maximal inhibition (IC50) was put at 31.6 nM. In addition, the Ki in data set [1] was determined as 0.45 nM. Also, in data set [2], the CLhep predicted at 1 µM was 14 mL/min/kg.

In the case of `Cn1cc(-c2ccnc(N3CCc4c(sc5c4CCCC5)C3=O)c2CO)cc(Nc2ccc(N3CCN(C4COC4)CC3)cn2)c1=O`, the Ki in data set [1] turned out to be 5.97 nM. The CLhep predicted at 1 µM in data set [2] was 13 mL/min/kg.

In turn, `CN1CCN(c2ccc(Nc3cc(-c4cc(F)cc(N5CCn6c(cc7c6CCCC7)C5=O)c4CO)cn(C)c3=O)nc2)CC1` came in with a logD in “physchem” of 3.1. Further, the CLhep predicted at 1 µM in data set [2] is 15 mL/min/kg.

`C[C@H]1CN(C)CCN1c1ccc(Nc2cc(-c3cc(F)cc(N4CCn5c(cc6c5CCCC6)C4=O)c3CO)cn(C)c2=O)nc1` returned an IC50 in data set [4] of 4.6 nM. Also, the Ki in data set [1] was determined as 0.65 nM. The logD in the data set “physchem” was 3.2. Besides, in data set [2], the CLhep predicted at 1 µM is 14 mL/min/kg.

As for `C[C@H]1CN(c2ccc(Nc3cc(-c4cc(F)cc(N5CCn6c(cc7c6CCCC7)C5=O)c4CO)cn(C)c3=O)nc2)CCN1C`, the IC50 in data set [4] is 27.5 nM. Moreover, the Ki in data set [1] is 0.32 nM. Further, the logD in the data set “physchem” came to 2.3. The CLhep predicted at 1 µM in data set [2] is 13 mL/min/kg.

In data set [4], `Cn1cc(-c2ccnc(N3CCn4c(cc5c4CCCC5)C3=O)c2CO)cc(Nc2ccc(N3CCN(C4COC4)CC3)cn2)c1=O` came in with an IC50 of 54.9 nM. Moreover, the Ki in data set [1] was 1.8 nM. The compound also had a logD in the data set “physchem” of 2. In addition, the CLhep predicted at 1 µM in data set [2] was 8.1 mL/min/kg.

For `COCCCN1CCN(c2ccc(Nc3cc(-c4ccnc(N5CCn6c(cc7c6CC(C)(C)C7)C5=O)c4CO)cn(C)c3=O)nc2)CC1`, the Papp A→B in data set [3] came out at 9 ×10⁻⁶ cm/s. The compound also returned an IC50 in data set [4] of 32.2 nM. The inhibitory constant (Ki) in data set [1] was 1 nM. This compound yielded a logD in the data set “physchem” of 3.3. Also, in data set [2], the CLhep predicted at 1 µM is 12 mL/min/kg. In the data set “in vitro”, the efflux ratio is 1.3.

As to `Cn1cc(-c2nccc(N3CCn4c(cc5c4CCCC5)C3=O)c2CO)cc(Nc2ccc(N3CCN(C4COC4)CC3)cn2)c1=O`, the IC50 in data set [4] was determined as 387 nM. Also, the Ki in data set [1] is 6.9 nM. The logD in “physchem” was determined as 1.8. For the same compound, the CLhep predicted at 1 µM in data set [2] was 8 mL/min/kg.

`COCCN1CCN(c2ccc(Nc3cc(-c4ccnc(N5CCn6c(cc7c6CC(C)(C)C7)C5=O)c4CO)cn(C)c3=O)nc2)CC1`: the Papp A→B in data set [3] was found to be 12.5 ×10⁻⁶ cm/s. In data set [4], this compound yielded an IC50 of 36.6 nM. Moreover, in data set [1], the Ki worked out at 1.2 nM. Besides, the logD in “physchem” is 3.2. In data set [2], the CLhep predicted at 1 µM was 12 mL/min/kg. Besides, in the data set “in vitro”, the efflux ratio stood at 1.

Take `C[C@@H]1CN(C)CCN1c1ccc(Nc2cc(-c3cc(F)cc(N4CCn5c(cc6c5CCCC6)C4=O)c3CO)cn(C)c2=O)nc1`: the IC50 in data set [4] was 16.9 nM. In addition, the Ki in data set [1] was determined as 0.37 nM. Besides, in the data set “physchem”, the logD is 3.1. Besides, the CLhep predicted at 1 µM in data set [2] is 13 mL/min/kg.

As to `Cn1cc(-c2cncc(N3CCn4c(cc5c4CCCC5)C3=O)c2CO)cc(Nc2ccc(N3CCN(C4COC4)CC3)cn2)c1=O`, in data set [4], the IC50 worked out at 64.4 nM. In addition, the Ki in data set [1] turned out to be 6.3 nM. Besides, the logD in “physchem” stood at 1.9. In addition, the CLhep predicted at 1 µM in data set [2] was 7.9 mL/min/kg.
